Source: ChEMBL document CHEMBL4507329, “Data for DCP probe BTZO-1” (2021)

Columns and labels:
[1] = test system: Tyrosine-protein kinase ABL1 (Homo sapiens), P00519 [F317I]; settings: Compound concentration 1000.0 nM
[2] = test system: Tyrosine-protein kinase ABL1 (Homo sapiens), P00519 [Q252H]; settings: Compound concentration 1000.0 nM
[3] = test system: Tyrosine-protein kinase ABL1 (Homo sapiens), P00519 [Y253F]; settings: Compound concentration 1000.0 nM
[4] = molecular target: Activin receptor type-1-like (Homo sapiens) (UniProt P37023); settings: Compound concentration 1000.0 nM
[5] = molecular target: Aurora kinase A (Homo sapiens) (UniProt O14965); settings: Compound concentration 1000.0 nM
[6] = molecular target: Calcium/calmodulin-dependent protein kinase type II subunit delta (Homo sapiens) (UniProt Q13557); settings: Compound concentration 1000.0 nM
[7] = molecular target: Calcium/calmodulin-dependent protein kinase kinase 2 (Homo sapiens) (UniProt Q96RR4); settings: Compound concentration 1000.0 nM
[8] = molecular target: Serine/threonine-protein kinase DCLK1 (Homo sapiens) (UniProt O15075); settings: Compound concentration 1000.0 nM
[9] = molecular target: Serine/threonine-protein kinase 17B (Homo sapiens) (UniProt O94768); settings: Compound concentration 1000.0 nM
[10] = molecular target: Mitogen-activated protein kinase 7 (Homo sapiens) (UniProt Q13164); settings: Compound concentration 1000.0 nM
[11] = molecular target: Fibroblast growth factor receptor 2 (Homo sapiens) (UniProt P21802); settings: Compound concentration 1000.0 nM
[12] = test system: Fibroblast growth factor receptor 3 (Homo sapiens), P22607 [G697C]; settings: Compound concentration 1000.0 nM
[13] = test system: Receptor-type tyrosine-protein kinase FLT3 (Homo sapiens), P36888 [UNDEFINED MUTATION]; settings: Compound concentration 1000.0 nM
[14] = molecular target: Homeodomain-interacting protein kinase 1 (Homo sapiens) (UniProt Q86Z02); settings: Compound concentration 1000.0 nM
[15] = molecular target: Homeodomain-interacting protein kinase 3 (Homo sapiens) (UniProt Q9H422); settings: Compound concentration 1000.0 nM
[16] = molecular target: Interleukin-1 receptor-associated kinase 4 (Homo sapiens) (UniProt Q9NWZ3); settings: Compound concentration 1000.0 nM
[17] = molecular target: Tyrosine-protein kinase JAK1 (Homo sapiens) (UniProt P23458); settings: Compound concentration 1000.0 nM
[18] = molecular target: Tyrosine-protein kinase JAK3 (Homo sapiens) (UniProt P52333); settings: Compound concentration 1000.0 nM
[19] = test system: Mast/stem cell growth factor receptor Kit (Homo sapiens), P10721 [V559D,V654A]; settings: Compound concentration 1000.0 nM
[20] = molecular target: Mitogen-activated protein kinase kinase kinase kinase 2 (Homo sapiens) (UniProt Q12851); settings: Compound concentration 1000.0 nM
[21] = molecular target: Serine/threonine-protein kinase MARK1 (Homo sapiens) (UniProt Q9P0L2); settings: Compound concentration 1000.0 nM
[22] = molecular target: Serine/threonine-protein kinase MARK2 (Homo sapiens) (UniProt Q7KZI7); settings: Compound concentration 1000.0 nM
[23] = molecular target: Dual specificity mitogen-activated protein kinase kinase 2 (Homo sapiens) (UniProt P36507); settings: Compound concentration 1000.0 nM
[24] = molecular target: Myosin-IIIb (Homo sapiens) (UniProt Q8WXR4); settings: Compound concentration 1000.0 nM
[25] = molecular target: Serine/threonine-protein kinase Nek5 (Homo sapiens) (UniProt Q6P3R8); settings: Compound concentration 1000.0 nM
[26] = molecular target: Serine/threonine-protein kinase NLK (Homo sapiens) (UniProt Q9UBE8); settings: Compound concentration 1000.0 nM
[27] = molecular target: Mitogen-activated protein kinase 11 (Homo sapiens) (UniProt Q15759); settings: Compound concentration 1000.0 nM
[28] = molecular target: Mitogen-activated protein kinase 12 (Homo sapiens) (UniProt P53778); settings: Compound concentration 1000.0 nM
[29] = molecular target: Serine/threonine-protein kinase PAK 2 (Homo sapiens) (UniProt Q13177); settings: Compound concentration 1000.0 nM
[30] = molecular target: Calcium-dependent protein kinase 1 (Plasmodium falciparum) (UniProt P62344); settings: Compound concentration 1000.0 nM
[31] = molecular target: Phosphorylase b kinase gamma catalytic chain, skeletal muscle/heart isoform (Homo sapiens) (UniProt Q16816); settings: Compound concentration 1000.0 nM
[32] = molecular target: Phosphatidylinositol 4-phosphate 3-kinase C2 domain-containing subunit beta (Homo sapiens) (UniProt O00750); settings: Compound concentration 1000.0 nM
[33] = test system: Phosphatidylinositol 4,5-bisphosphate 3-kinase catalytic subunit alpha isoform (Homo sapiens), P42336 [E545A]; settings: Compound concentration 1000.0 nM
[34] = molecular target: Phosphatidylinositol 4-kinase beta (Homo sapiens) (UniProt Q9UBF8); settings: Compound concentration 1000.0 nM
[35] = molecular target: 1-phosphatidylinositol 3-phosphate 5-kinase (Homo sapiens) (UniProt Q9Y2I7); settings: Compound concentration 1000.0 nM
[36] = molecular target: cAMP-dependent protein kinase catalytic subunit alpha (Homo sapiens) (UniProt P17612); settings: Compound concentration 1000.0 nM
[37] = molecular target: Serine/threonine-protein kinase PLK4 (Homo sapiens) (UniProt O00444); settings: Compound concentration 1000.0 nM
[38] = molecular target: Protein kinase C delta type (Homo sapiens) (UniProt Q05655); settings: Compound concentration 1000.0 nM
[39] = molecular target: Receptor-interacting serine/threonine-protein kinase 1 (Homo sapiens) (UniProt Q13546); settings: Compound concentration 1000.0 nM
[40] = molecular target: Ribosomal protein S6 kinase alpha-5 (Homo sapiens) (UniProt O75582); settings: Compound concentration 1000.0 nM
[41] = molecular target: Ribosomal protein S6 kinase alpha-1 (Homo sapiens) (UniProt Q15418); settings: Compound concentration 1000.0 nM
[42] = molecular target: STE20-like serine/threonine-protein kinase (Homo sapiens) (UniProt Q9H2G2); settings: Compound concentration 1000.0 nM
[43] = molecular target: NT-3 growth factor receptor (Homo sapiens) (UniProt Q16288); settings: Compound concentration 1000.0 nM
[44] = molecular target: Sodium-dependent dopamine transporter (Homo sapiens) (UniProt Q01959); settings: Compound concentration 10.0 uM
[45] = molecular target: Histamine H4 receptor (Homo sapiens) (UniProt Q9H3N8); settings: Compound concentration 10.0 uM

Chain of Mitogen-activated protein kinase kinase kinase kinase 2 (Homo sapiens) (Q12851 whole entry): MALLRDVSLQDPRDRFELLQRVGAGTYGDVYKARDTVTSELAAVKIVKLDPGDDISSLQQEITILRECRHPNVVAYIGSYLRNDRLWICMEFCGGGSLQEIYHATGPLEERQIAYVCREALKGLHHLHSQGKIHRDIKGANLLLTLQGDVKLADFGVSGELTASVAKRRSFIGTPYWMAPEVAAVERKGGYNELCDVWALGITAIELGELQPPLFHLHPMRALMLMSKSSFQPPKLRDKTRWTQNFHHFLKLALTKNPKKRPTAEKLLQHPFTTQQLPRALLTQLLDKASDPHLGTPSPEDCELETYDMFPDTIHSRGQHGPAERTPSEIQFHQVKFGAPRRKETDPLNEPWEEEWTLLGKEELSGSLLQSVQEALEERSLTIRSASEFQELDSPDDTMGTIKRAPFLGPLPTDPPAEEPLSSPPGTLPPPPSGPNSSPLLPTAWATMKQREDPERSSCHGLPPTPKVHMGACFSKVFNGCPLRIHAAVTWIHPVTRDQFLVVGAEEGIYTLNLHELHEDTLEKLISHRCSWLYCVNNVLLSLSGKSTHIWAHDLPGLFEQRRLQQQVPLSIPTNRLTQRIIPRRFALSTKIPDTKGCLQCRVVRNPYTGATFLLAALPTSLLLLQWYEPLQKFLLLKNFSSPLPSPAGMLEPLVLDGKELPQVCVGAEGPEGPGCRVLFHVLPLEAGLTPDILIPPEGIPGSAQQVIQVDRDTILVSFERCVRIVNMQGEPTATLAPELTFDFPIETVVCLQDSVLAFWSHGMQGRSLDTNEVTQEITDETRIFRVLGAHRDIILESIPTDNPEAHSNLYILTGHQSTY
Chain of Dual specificity mitogen-activated protein kinase kinase 2 (Homo sapiens) (P36507 whole entry): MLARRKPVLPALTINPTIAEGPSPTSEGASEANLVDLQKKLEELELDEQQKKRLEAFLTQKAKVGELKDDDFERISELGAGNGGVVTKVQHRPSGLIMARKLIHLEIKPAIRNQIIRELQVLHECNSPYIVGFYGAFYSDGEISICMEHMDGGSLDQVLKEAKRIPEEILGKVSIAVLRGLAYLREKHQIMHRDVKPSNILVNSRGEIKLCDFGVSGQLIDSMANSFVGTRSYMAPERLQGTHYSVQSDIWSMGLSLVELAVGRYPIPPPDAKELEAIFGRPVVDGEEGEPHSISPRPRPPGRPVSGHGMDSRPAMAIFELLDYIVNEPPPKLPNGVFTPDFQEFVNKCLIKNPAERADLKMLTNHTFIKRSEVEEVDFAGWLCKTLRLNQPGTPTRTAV
Chain of NT-3 growth factor receptor (Homo sapiens) (Q16288 32-839 limits assumed): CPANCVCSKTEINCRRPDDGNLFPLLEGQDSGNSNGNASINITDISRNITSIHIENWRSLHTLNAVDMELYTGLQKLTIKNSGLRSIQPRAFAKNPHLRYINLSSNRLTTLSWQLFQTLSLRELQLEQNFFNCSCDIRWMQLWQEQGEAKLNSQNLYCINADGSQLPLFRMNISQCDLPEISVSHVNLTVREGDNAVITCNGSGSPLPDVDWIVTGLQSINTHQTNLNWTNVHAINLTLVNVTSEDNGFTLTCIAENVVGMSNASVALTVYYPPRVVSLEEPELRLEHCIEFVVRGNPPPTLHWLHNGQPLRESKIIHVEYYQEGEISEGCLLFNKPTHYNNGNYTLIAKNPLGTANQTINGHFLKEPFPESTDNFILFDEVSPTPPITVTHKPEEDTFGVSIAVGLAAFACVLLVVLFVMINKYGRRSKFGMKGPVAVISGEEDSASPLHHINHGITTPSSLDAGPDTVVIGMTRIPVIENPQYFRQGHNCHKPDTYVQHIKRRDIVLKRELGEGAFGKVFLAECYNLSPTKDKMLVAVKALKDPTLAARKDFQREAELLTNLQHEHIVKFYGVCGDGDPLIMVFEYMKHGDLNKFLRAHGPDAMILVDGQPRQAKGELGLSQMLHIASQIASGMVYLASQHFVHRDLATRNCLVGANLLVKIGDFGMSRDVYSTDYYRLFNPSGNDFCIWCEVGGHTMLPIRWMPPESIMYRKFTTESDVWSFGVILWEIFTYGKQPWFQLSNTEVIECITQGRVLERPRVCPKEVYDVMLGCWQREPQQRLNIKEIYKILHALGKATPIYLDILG
Chain of Phosphatidylinositol 4-kinase beta (Homo sapiens) (Q9UBF8 2-816 limits assumed): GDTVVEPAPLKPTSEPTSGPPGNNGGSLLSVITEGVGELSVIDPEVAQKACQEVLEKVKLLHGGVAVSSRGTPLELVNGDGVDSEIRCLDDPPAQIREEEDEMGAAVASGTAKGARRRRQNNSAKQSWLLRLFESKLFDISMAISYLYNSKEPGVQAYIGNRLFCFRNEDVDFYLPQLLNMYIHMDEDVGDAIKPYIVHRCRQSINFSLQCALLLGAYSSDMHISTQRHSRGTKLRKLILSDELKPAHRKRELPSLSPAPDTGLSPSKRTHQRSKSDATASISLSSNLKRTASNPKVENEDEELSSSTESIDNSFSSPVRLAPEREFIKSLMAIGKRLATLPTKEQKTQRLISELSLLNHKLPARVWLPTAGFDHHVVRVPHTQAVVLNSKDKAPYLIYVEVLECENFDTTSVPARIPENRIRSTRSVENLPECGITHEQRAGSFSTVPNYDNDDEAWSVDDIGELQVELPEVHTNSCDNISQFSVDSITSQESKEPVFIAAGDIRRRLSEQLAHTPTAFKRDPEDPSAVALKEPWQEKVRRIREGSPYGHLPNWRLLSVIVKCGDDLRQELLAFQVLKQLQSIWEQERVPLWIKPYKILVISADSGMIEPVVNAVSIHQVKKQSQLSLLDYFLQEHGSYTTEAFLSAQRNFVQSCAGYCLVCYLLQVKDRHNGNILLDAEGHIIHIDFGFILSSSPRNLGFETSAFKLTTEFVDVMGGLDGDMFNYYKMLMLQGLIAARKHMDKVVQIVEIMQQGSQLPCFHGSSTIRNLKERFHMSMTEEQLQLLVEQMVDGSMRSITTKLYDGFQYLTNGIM
Chain of Receptor-interacting serine/threonine-protein kinase 1 (Homo sapiens) (Q13546 whole entry): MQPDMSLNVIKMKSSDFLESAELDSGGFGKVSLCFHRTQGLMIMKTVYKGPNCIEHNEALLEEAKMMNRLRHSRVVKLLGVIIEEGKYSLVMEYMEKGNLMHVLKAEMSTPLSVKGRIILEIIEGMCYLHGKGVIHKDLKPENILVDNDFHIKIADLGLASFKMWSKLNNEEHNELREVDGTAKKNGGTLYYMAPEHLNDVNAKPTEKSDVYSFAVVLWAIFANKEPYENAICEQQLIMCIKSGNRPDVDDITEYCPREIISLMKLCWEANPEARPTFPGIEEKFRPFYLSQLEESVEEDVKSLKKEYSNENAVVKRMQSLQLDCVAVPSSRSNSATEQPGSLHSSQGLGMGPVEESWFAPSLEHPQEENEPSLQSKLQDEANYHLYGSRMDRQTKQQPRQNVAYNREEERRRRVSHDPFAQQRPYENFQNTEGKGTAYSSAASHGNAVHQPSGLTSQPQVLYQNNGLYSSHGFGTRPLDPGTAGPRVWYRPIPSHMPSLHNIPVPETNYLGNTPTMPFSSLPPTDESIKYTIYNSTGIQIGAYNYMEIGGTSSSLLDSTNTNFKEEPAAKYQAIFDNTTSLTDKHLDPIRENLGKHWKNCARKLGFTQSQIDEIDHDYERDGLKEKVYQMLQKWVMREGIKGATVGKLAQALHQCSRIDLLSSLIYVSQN
Chain of Myosin-IIIb (Homo sapiens) (Q8WXR4 whole entry): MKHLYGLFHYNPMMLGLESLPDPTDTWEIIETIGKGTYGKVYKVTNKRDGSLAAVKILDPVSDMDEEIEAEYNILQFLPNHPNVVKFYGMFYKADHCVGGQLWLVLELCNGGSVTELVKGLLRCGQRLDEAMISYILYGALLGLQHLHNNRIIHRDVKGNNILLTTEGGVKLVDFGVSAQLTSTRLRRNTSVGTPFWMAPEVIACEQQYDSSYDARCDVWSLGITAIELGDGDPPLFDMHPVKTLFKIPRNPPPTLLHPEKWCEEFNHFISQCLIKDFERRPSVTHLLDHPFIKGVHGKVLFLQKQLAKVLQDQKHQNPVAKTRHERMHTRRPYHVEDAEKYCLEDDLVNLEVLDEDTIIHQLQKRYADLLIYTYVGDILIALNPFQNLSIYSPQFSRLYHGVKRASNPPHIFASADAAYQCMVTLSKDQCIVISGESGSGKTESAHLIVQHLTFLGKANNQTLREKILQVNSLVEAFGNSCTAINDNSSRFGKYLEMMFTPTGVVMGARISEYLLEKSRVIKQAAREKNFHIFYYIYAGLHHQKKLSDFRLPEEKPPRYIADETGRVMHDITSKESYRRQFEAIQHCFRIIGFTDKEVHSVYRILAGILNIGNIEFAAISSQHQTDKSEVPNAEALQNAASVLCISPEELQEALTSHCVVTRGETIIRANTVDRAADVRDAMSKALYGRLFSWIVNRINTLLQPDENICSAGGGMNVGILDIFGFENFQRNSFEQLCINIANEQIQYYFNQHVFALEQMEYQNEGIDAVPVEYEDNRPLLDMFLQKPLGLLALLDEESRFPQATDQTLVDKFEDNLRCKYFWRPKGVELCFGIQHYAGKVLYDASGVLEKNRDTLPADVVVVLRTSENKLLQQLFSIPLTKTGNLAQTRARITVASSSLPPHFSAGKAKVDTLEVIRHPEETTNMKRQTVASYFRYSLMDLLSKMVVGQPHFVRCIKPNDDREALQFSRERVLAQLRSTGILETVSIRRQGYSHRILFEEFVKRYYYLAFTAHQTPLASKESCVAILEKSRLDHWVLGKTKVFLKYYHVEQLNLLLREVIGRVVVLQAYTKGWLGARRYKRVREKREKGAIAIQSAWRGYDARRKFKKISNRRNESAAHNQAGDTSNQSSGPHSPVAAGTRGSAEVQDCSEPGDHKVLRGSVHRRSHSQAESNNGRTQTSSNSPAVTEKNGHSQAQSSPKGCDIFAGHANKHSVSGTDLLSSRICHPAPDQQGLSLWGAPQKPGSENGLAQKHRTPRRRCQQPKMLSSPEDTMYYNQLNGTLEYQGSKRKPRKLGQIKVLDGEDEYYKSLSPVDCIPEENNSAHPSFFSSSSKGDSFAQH

O=c1nc(-c2ccccn2)sc2ccccc12 [BTZO-1]
inactive: residual activity [1] 91% | residual activity [2] 82% | residual activity [3] 83% | residual activity [4] 99% | residual activity [5] 87% | residual activity [6] 90% | residual activity [7] 90% | residual activity [8] 90% | residual activity [9] 80% | residual activity [10] 100% | residual activity [11] 100% | residual activity [12] 100% | residual activity [13] 81% | residual activity [14] 61% | residual activity [15] 92% | residual activity [16] 100% | residual activity [17] 86% | residual activity [18] 100% | residual activity [19] 100% | residual activity [20] 100% | residual activity [21] 100% | residual activity [22] 78% | residual activity [23] 89% | residual activity [24] 79% | residual activity [25] 78% | residual activity [26] 100% | residual activity [27] 100% | residual activity [28] 58% | residual activity [29] 100% | residual activity [30] 77% | residual activity [31] 84% | residual activity [32] 83% | residual activity [33] 92% | residual activity [34] 71% | residual activity [35] 100% | residual activity [36] 91% | residual activity [37] 80% | residual activity [38] 100% | residual activity [39] 83% | residual activity [40] 88% | residual activity [41] 100% | residual activity [42] 85% | residual activity [43] 72% | inhibition [44] -3.83% | inhibition [45] -0.975%

O=C1NC(c2ccccn2)Sc2ccccc21 (stereo not given) [BTZO-4]
inactive: residual activity [1] 88% | residual activity [2] 73% | residual activity [3] 69% | residual activity [4] 70% | residual activity [5] 93% | residual activity [6] 75% | residual activity [7] 95% | residual activity [8] 77% | residual activity [9] 73% | residual activity [10] 96% | residual activity [11] 100% | residual activity [12] 100% | residual activity [13] 83% | residual activity [14] 75% | residual activity [15] 86% | residual activity [16] 100% | residual activity [17] 69% | residual activity [18] 100% | residual activity [19] 87% | residual activity [20] 83% | residual activity [21] 99% | residual activity [22] 92% | residual activity [23] 75% | residual activity [24] 96% | residual activity [25] 72% | residual activity [26] 100% | residual activity [27] 100% | residual activity [28] 51% | residual activity [29] 100% | residual activity [30] 57% | residual activity [31] 76% | residual activity [32] 86% | residual activity [33] 97% | residual activity [34] 79% | residual activity [35] 100% | residual activity [36] 81% | residual activity [37] 76% | residual activity [38] 71% | residual activity [39] 81% | residual activity [40] 87% | residual activity [41] 100% | residual activity [42] 76% | residual activity [43] 81% | inhibition [44] -2.05% | inhibition [45] 1.89%
